How the values were obtained:
DIPGX29 [1] = H3.3 K27M diffuse intrinsic pontine glioma line; assay: EC50 (inflection of fitted growth-inhibition curve) (log10 M)
Procedure, shortened: (§1)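 Compounds were delivered by pin tool as a 10-point threefold dilution series with a mean top concentration of 35 μM, in triplicate, to patient-derived pHGG/DIPG cell lines and astrocyte controls growing on 1% Geltrex-coated 384-well plates. Incubation lasted 7 days, or 3 days for iAstro, at 37 °C with 5% CO2. EC50 and maximal response (yFin) come from the three- or four-parameter log-logistic fit with the lowest AICc, applied to pooled, log2-transformed CellTiter-Glo luminescence normalised per plate to % activity between solvent (negative) and positive control wells.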

DIPGX37 [2] = H3.3 K27M diffuse intrinsic pontine glioma line; assay: as above
Procedure, shortened: as §1

DIPGX7 [3] = H3.3 K27M diffuse intrinsic pontine glioma line; assay: as above
Procedure, shortened: as §1

HGGX39 [4] = paediatric high-grade glioma line; assay: as above
Procedure, shortened: as §1

HGGX42 [5] = H3.3 G34R paediatric high-grade glioma line; assay: as above
Procedure, shortened: as §1

SUDIPGIV [6] = diffuse intrinsic pontine glioma line; assay: as above
Procedure, shortened: as §1

SUDIPGVI [7] = diffuse intrinsic pontine glioma line; assay: as above
Procedure, shortened: as §1

SUDIPGXIII [8] = diffuse intrinsic pontine glioma line; assay: as above
Procedure, shortened: as §1

SUDIPGXVII [9] = diffuse intrinsic pontine glioma line; assay: as above
Procedure, shortened: as §1

SUDIPGXXI [10] = diffuse intrinsic pontine glioma line; assay: as above
Procedure, shortened: as §1

iAstro [11] = astrocyte control; assay: as above
Procedure, shortened: as §1

DIPGX29 [12] = assay: maximal growth inhibition (yFin) relative to DMSO / staurosporine; higher = more efficacious
Procedure, shortened: as §1

DIPGX37 [13] = assay: as above
Procedure, shortened: as §1

DIPGX7 [14] = assay: as above
Procedure, shortened: as §1

HGGX39 [15] = assay: as above
Procedure, shortened: as §1

HGGX42 [16] = assay: as above
Procedure, shortened: as §1

SUDIPGIV [17] = assay: as above
Procedure, shortened: as §1

SUDIPGVI [18] = assay: as above
Procedure, shortened: as §1

SUDIPGXIII [19] = assay: as above
Procedure, shortened: as §1

SUDIPGXVII [20] = assay: as above
Procedure, shortened: as §1

SUDIPGXXI [21] = assay: as above
Procedure, shortened: as §1

iAstro [22] = assay: as above
Procedure, shortened: as §1

DIPGX29 [23] = assay: area under dose-response curve of % growth inhibition (log2 RLU vs DMSO / staurosporine), 1e-11 to 1e-4 M (% x log10 M); higher = more growth inhibition
Procedure, shortened: (§2)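 Area under the curve was derived with the trapezoid rule from a fitted log-logistic curve, switching to a smoothing spline if the sigmoid fit failed. It rested on per-plate % activity between solvent and positive controls, calculated from log2-transformed CellTiter-Glo luminescence after 7 days of exposure (3 days for iAstro) at 37 °C, 5% CO2. Patient-derived pHGG/DIPG lines and astrocytes on 1% Geltrex-coated 384-well plates received a 10-point threefold dilution series, mean top concentration 35 μM, in triplicate.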

DIPGX37 [24] = assay: as above
Procedure, shortened: as §2

DIPGX7 [25] = assay: as above
Procedure, shortened: as §2

DIPGX9 [26] = diffuse intrinsic pontine glioma line; assay: as above
Procedure, shortened: as §2

HABS [27] = astrocyte control; assay: as above
Procedure, shortened: as §2

HGGX2 = paediatric high-grade glioma line; assay: as above
Procedure, shortened: as §2

HGGX39 [28] = assay: as above
Procedure, shortened: as §2

HGGX42 [29] = assay: as above
Procedure, shortened: as §2

HGGX6 [30] = H3.3 G34R paediatric high-grade glioma line; assay: as above
Procedure, shortened: as §2

SUDIPGIV [31] = assay: as above
Procedure, shortened: as §2

SUDIPGVI [32] = assay: as above
Procedure, shortened: as §2

SUDIPGXIII [33] = assay: as above
Procedure, shortened: as §2

SUDIPGXIX [34] = diffuse intrinsic pontine glioma line; assay: as above
Procedure, shortened: as §2

SUDIPGXVII [35] = assay: as above
Procedure, shortened: as §2

SUDIPGXXI [36] = assay: as above
Procedure, shortened: as §2

iAstro [37] = assay: as above
Procedure, shortened: as §2

DIPGX9 [38] = assay: EC50 (inflection of fitted growth-inhibition curve) (log10 M)
Procedure, shortened: as §1

HABS [39] = assay: as above
Procedure, shortened: as §1

HGGX6 [40] = assay: as above
Procedure, shortened: as §1

SUDIPGXIX [41] = assay: as above
Procedure, shortened: as §1

DIPGX9 [42] = assay: maximal growth inhibition (yFin) relative to DMSO / staurosporine; higher = more efficacious
Procedure, shortened: as §1

HABS [43] = assay: as above
Procedure, shortened: as §1

HGGX6 [44] = assay: as above
Procedure, shortened: as §1

SUDIPGXIX [45] = assay: as above
Procedure, shortened: as §1

| Structure (SMILES) | EC50 (log10 M) (DIPGX29 [1]) | EC50 (log10 M) (HGGX39 [4]) | EC50 (log10 M) (HGGX42 [5]) | EC50 (log10 M) (SUDIPGIV [6]) | EC50 (log10 M) (SUDIPGVI [7]) | EC50 (log10 M) (SUDIPGXIII [8]) | EC50 (log10 M) (SUDIPGXVII [9]) | maximal growth inhibition (DIPGX29 [12]) [%] | maximal growth inhibition (HGGX39 [15]) [%] | maximal growth inhibition (HGGX42 [16]) [%] | maximal growth inhibition (SUDIPGIV [17]) [%] | maximal growth inhibition (SUDIPGVI [18]) [%] | maximal growth inhibition (SUDIPGXIII [19]) [%] | maximal growth inhibition (SUDIPGXVII [20]) [%] | area under dose-response curve (DIPGX29 [23]) | area under dose-response curve (DIPGX37 [24]) | area under dose-response curve (DIPGX7 [25]) | area under dose-response curve (DIPGX9 [26]) | area under dose-response curve (HABS [27]) | area under dose-response curve (HGGX2) | also measured |
| --- | --- | --- | --- | --- | --- | --- | --- | --- | --- | --- | --- | --- | --- | --- | --- | --- | --- | --- | --- | --- | --- |
| Fc1ccc(-c2c3cccc(C(F)(F)F)c3nn2Cc2ccc(F)cc2Cl)cc1 | -4.98 | -5.05 | -5.03 | -5.12 | -4.94 | -5.05 | -5.16 | 38.7 | 38.1 | 38.9 | 60.3 | 42.8 | 51.1 | 30.9 | 38.1 | 53 | 53.6 | 31.5 | 9.3 | 13.1 | EC50 (log10 M) (DIPGX37 [2]): -5.07; EC50 (log10 M) (DIPGX7 [3]): -5.33; EC50 (log10 M) (SUDIPGXXI [10]): -5.13; EC50 (log10 M) (iAstro [11]): -5.13; maximal growth inhibition (DIPGX37 [13]): 49.6%; maximal growth inhibition (DIPGX7 [14]): 40.8%; maximal growth inhibition (SUDIPGXXI [21]): 112%; maximal growth inhibition (iAstro [22]): 33.9%; area under dose-response curve (HGGX39 [28]): 39.9; area under dose-response curve (HGGX42 [29]): 40.2; area under dose-response curve (HGGX6 [30]): 6.34; area under dose-response curve (SUDIPGIV [31]): 67.1; area under dose-response curve (SUDIPGVI [32]): 39.9; area under dose-response curve (SUDIPGXIII [33]): 52.8; area under dose-response curve (SUDIPGXIX [34]): 2.47; area under dose-response curve (SUDIPGXVII [35]): 40.7; area under dose-response curve (SUDIPGXXI [36]): 165; area under dose-response curve (iAstro [37]): 38.3 |
| Nc1ccc2ncnc(NCCc3ccc(Oc4ccccc4)cc3)c2c1 [EVP4593] | -7.98 | -8.62 | -7.84 | -7.95 | -8.43 | -8.11 | -8.18 | 45.1 | 46.7 | 44.9 | 74.9 | 54.6 | 84.8 | 35.9 | 179 | 275 | 447 | 183 | 141 | 71.8 | EC50 (log10 M) (DIPGX9 [38]): -7.97; EC50 (log10 M) (HABS [39]): -7.75; EC50 (log10 M) (HGGX6 [40]): -8.04; EC50 (log10 M) (SUDIPGXIX [41]): -7.71; maximal growth inhibition (DIPGX9 [42]): 46.2%; maximal growth inhibition (HABS [43]): 37.7%; maximal growth inhibition (HGGX6 [44]): 38.5%; maximal growth inhibition (SUDIPGXIX [45]): 47.8%; area under dose-response curve (HGGX39 [28]): 216; area under dose-response curve (HGGX42 [29]): 173; area under dose-response curve (HGGX6 [30]): 156; area under dose-response curve (SUDIPGIV [31]): 296; area under dose-response curve (SUDIPGVI [32]): 242; area under dose-response curve (SUDIPGXIII [33]): 348; area under dose-response curve (SUDIPGXIX [34]): 178; area under dose-response curve (SUDIPGXVII [35]): 171; area under dose-response curve (SUDIPGXXI [36]): 224; area under dose-response curve (iAstro [37]): 113 |
